Test results: PubChem BioAssay AID1963968 (Molecular Pharmacology Branch, DTP, NCI, 2024)

Test system: 945468-187-T-J3-PDC spheroids with HUVEC/MSC, viability
Test: Anticancer human tumor 945468-187-T-J3-PDC patient-derived rectal carcinoma cell line growth inhibition [PI3K]
Settings: for IC50: curve of first compound; for viability, T/C: stronger effect = lower value
From the text: Combinatorial screen of targeted agents with the PI3K inhibitors inavolisib, alpelisib, duvelisib, and copanlisib in multi-cell type tumor spheroids
A high-throughput screen of multi-cell type tumor spheroids was designed to identify active combinations of targeted small molecules and PI3K pathway inhibitors. Complex spheroids include a stromal component modeled by human endothelial cells (HUVEC) and fibroblasts modeled by human mesenchymal stem cells (MSCs). The concentration ranges selected for each drug and investigational agent were based upon clinically achievable concentrations if the clinical Cmax of the agent was known.
Compounds. The drugs and investigational agents: inavolisib (NSC800729), alpelisib (NSC765974), duvelisib (NSC772469), copanlisib (NSC816437), ipatasertib (NSC767898), afuresertib (NSC778305), talazoparib (NSC767125), sapanisertib (NSC764658), selumetinib (NSC741078), tovorafenib (DAY101, NSC766906), vemurafenib (NSC761431), ravoxertinib (NSC781343), sotorasib (NSC818433), MRTX1133 (NSC 836407), abemaciclib (NSC 768073), palbociclib (NSC758247), venetoclax (NSC 766270), SY5609 (NSC837396), enzalutamide (NSC755605), and darolutamide (NSC825331), were obtained from the National Cancer Institute (NCI) Developmental Therapeutics Program Chemical Repository. The FDA-approved anticancer drug set is available from the NCI Developmental Therapeutics Program. […] The stock solutions were prepared in dimethyl sulfoxide (DMSO, Sigma-Aldrich, St. Louis, MO, cat. D2650) at 800-fold the tested concentration and stored at -70 degrees C prior to their use. All drugs and investigational agents were tested over a range starting from a high concentration at or near the clinical Cmax and decreasing in half-log increments. If the clinical Cmax for an agent had not been determined, the highest concentration tested was 10 microM.
Cell Culture. All cells were maintained in an incubator at 37 degrees C and 5% CO2 with 95% humidity. The PDC lines were cultured according to standard operating procedures established by the NCI PDMR (https://pdmr.cancer.gov/sops/default.htm). All PDCs were thawed and cultured in Matrigel-coated flasks prepared with a working solution of 1X Ham's F-12 nutrient mix, without supplementation (Invitrogen, Waltham, MA, cat. 11765054), 100 U/mL penicillin-streptomycin (Invitrogen, cat. 15140122), and 2.5% Matrigel (Corning Inc., Corning, NY, cat. 354248) for the first three passages. The 354836-022-R-J1-PDC, 475296-252-R-J1-PDC, and 997726-040-R-J2-PDC lines were cultured in 6A media, which includes advanced DMEM/F-12 (Thermo Fisher Scientific, cat. 12634028), 10 mM HEPES (Thermo Fisher Scientific, cat. 15630080), 1X GlutaMAX supplement (Thermo Fisher Scientific, cat. 35050061), 0.1 mg/mL primocin (InvivoGen, San Diego, CA, cat. ant-pm-2), 10% defined fetal bovine serum, heat inactivated (HyClone Laboratories Inc., Logan, UT, cat. SH30070.03HI), 50% L-WRN conditioned media (ATCC, cat. CRL-3276), 1.25 mM N-Acetyl-L-cysteine (Sigma-Aldrich, cat. A9165), 10 mM nicotinamide (Sigma-Aldrich, cat. N0636), 1X B-27 supplement (Thermo Fisher Scientific, cat. 17504044), 1X N-2 supplement (Thermo Fisher Scientific, cat. 17502048), and 10 microM Y-27632 dihydrochloride (Tocris Bioscience, Bristol, United Kingdom, cat. 1254). The 624824-186-R-J2-PDC line was cultured in 6C/Colon 1B media, which includes all 6A media components plus 50 ng/mL human EGF recombinant protein (Thermo Fisher Scientific, cat. PHG0311). […]

[1] = second compound 0.00316 µM, first compound 0.0316 µM
[2] = second compound 0.00316 µM, first compound 0.1 µM
[3] = second compound 0.01 µM, first compound 0.0316 µM
[4] = second compound 0.01 µM, first compound 0.1 µM
[5] = second compound 0.0316 µM, first compound 0.0316 µM
[6] = second compound 0.0316 µM, first compound 0.1 µM
[7] = second compound 0.1 µM, first compound 0.0316 µM
[8] = second compound 0.1 µM, first compound 0.1 µM
[9] = second compound 0.316 µM, first compound 0.0316 µM
[10] = second compound 0.316 µM, first compound 0.1 µM
[11] = second compound 1 µM, first compound 0.0316 µM
[12] = second compound 1 µM, first compound 0.1 µM
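Further: spheroids exposed to agents for 7 days before viability read.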
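Wherever viability, T/C is given: 100% = DMSO vehicle control viability.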

Compound `CC(C)n1nc(-c2ccc3oc(N)nc3c2)c2c(N)ncnc21` + CC(Nc1ccc2c(c1)OCCn1cc(N3C(=O)OCC3C(F)F)nc1-2)C(N)=O has an IC50 (second compound 0.00316 µM) greater than 0.1 µM, an IC50 (second compound 0.01 µM) greater than 0.1 µM and an IC50 (second compound 0.0316 µM) of 0.0931 µM. It also gave an IC50 (second compound 0.1 µM) of 0.0738 µM, an IC50 (second compound 0.316 µM) of 0.0274 µM and an IC50 (second compound 1 µM) of 0.00519 µM. For the same compound, the viability, T/C (second compound 0.00316 µM, first compound 0.000316 µM) was 111%, the viability, T/C (second compound 0.00316 µM, first compound 0.001 µM) was 104% and the viability, T/C (second compound 0.00316 µM, first compound 0.00316 µM) was 109%. For the same compound, the viability, T/C (second compound 0.00316 µM, first compound 0.01 µM) was 116%, the viability, T/C [1] was 118% and the viability, T/C [2] was 71%. The viability, T/C (second compound 0.01 µM, first compound 0.000316 µM) was 102%, the viability, T/C (second compound 0.01 µM, first compound 0.001 µM) was 105% and the viability, T/C (second compound 0.01 µM, first compound 0.00316 µM) was 98.1%. The viability, T/C (second compound 0.01 µM, first compound 0.01 µM) was 111%, the viability, T/C [3] was 123% and the viability, T/C [4] was 63.4%. The viability, T/C (second compound 0.0316 µM, first compound 0.000316 µM) was 99.1%, the viability, T/C (second compound 0.0316 µM, first compound 0.001 µM) was 94.5% and the viability, T/C (second compound 0.0316 µM, first compound 0.00316 µM) was 129%. It also gave a viability, T/C (second compound 0.0316 µM, first compound 0.01 µM) of 110%, a viability, T/C [5] of 114% and a viability, T/C [6] of 46%. It also gave a viability, T/C (second compound 0.1 µM, first compound 0.000316 µM) of 102%, a viability, T/C (second compound 0.1 µM, first compound 0.001 µM) of 107% and a viability, T/C (second compound 0.1 µM, first compound 0.00316 µM) of 104%. The viability, T/C (second compound 0.1 µM, first compound 0.01 µM) was 126%, the viability, T/C [7] was 87.2% and the viability, T/C [8] was 36.7%. The viability, T/C (second compound 0.316 µM, first compound 0.000316 µM) was 103%, the viability, T/C (second compound 0.316 µM, first compound 0.001 µM) was 104% and the viability, T/C (second compound 0.316 µM, first compound 0.00316 µM) was 91%. For the same compound, the viability, T/C (second compound 0.316 µM, first compound 0.01 µM) was 77.8%, the viability, T/C [9] was 45.2% and the viability, T/C [10] was 24.9%. For the same compound, the viability, T/C (second compound 1 µM, first compound 0.000316 µM) was 65.7%, the viability, T/C (second compound 1 µM, first compound 0.001 µM) was 64.9% and the viability, T/C (second compound 1 µM, first compound 0.00316 µM) was 60.3%. It also gave a viability, T/C (second compound 1 µM, first compound 0.01 µM) of 36.3%, a viability, T/C [11] of 34.9% and a viability, T/C [12] of 29.8%.

With `CCCS(=O)(=O)Nc1ccc(F)c(C(=O)c2c[nH]c3ncc(-c4ccc(Cl)cc4)cc23)c1F` + CC(Nc1ccc2c(c1)OCCn1cc(N3C(=O)OCC3C(F)F)nc1-2)C(N)=O the IC50 (second compound 0.00316 µM) was 6.24 µM, the IC50 (second compound 0.01 µM) was 6.4 µM and the IC50 (second compound 0.0316 µM) was 6.62 µM. For the same compound, the IC50 (second compound 0.1 µM) was 7.15 µM, the IC50 (second compound 0.316 µM) was 6.37 µM and the IC50 (second compound 1 µM) was 3.27 µM. The viability, T/C [1] was 105%, the viability, T/C [2] was 96.9% and the viability, T/C (second compound 0.00316 µM, first compound 0.316 µM) was 93%. The viability, T/C (second compound 0.00316 µM, first compound 1 µM) was 104%, the viability, T/C (second compound 0.00316 µM, first compound 3.16 µM) was 97.1% and the viability, T/C (second compound 0.00316 µM, first compound 10 µM) was 17.3%. The viability, T/C [3] was 105%, the viability, T/C [4] was 88.7% and the viability, T/C (second compound 0.01 µM, first compound 0.316 µM) was 104%. The viability, T/C (second compound 0.01 µM, first compound 1 µM) was 102%, the viability, T/C (second compound 0.01 µM, first compound 3.16 µM) was 110% and the viability, T/C (second compound 0.01 µM, first compound 10 µM) was 17.3%. For the same compound, the viability, T/C [5] was 98.5%, the viability, T/C [6] was 108% and the viability, T/C (second compound 0.0316 µM, first compound 0.316 µM) was 97.7%. The viability, T/C (second compound 0.0316 µM, first compound 1 µM) was 94.3%, the viability, T/C (second compound 0.0316 µM, first compound 3.16 µM) was 100% and the viability, T/C (second compound 0.0316 µM, first compound 10 µM) was 22.2%. For the same compound, the viability, T/C [7] was 101%, the viability, T/C [8] was 102% and the viability, T/C (second compound 0.1 µM, first compound 0.316 µM) was 104%. The viability, T/C (second compound 0.1 µM, first compound 1 µM) was 99.7%, the viability, T/C (second compound 0.1 µM, first compound 3.16 µM) was 121% and the viability, T/C (second compound 0.1 µM, first compound 10 µM) was 27%. The viability, T/C [9] was 98.7%, the viability, T/C [10] was 108% and the viability, T/C (second compound 0.316 µM, first compound 0.316 µM) was 98.5%. For the same compound, the viability, T/C (second compound 0.316 µM, first compound 1 µM) was 114%, the viability, T/C (second compound 0.316 µM, first compound 3.16 µM) was 97.6% and the viability, T/C (second compound 0.316 µM, first compound 10 µM) was 18.9%. It also gave a viability, T/C [11] of 66%, a viability, T/C [12] of 66.6% and a viability, T/C (second compound 1 µM, first compound 0.316 µM) of 74.9%. It also gave a viability, T/C (second compound 1 µM, first compound 1 µM) of 69.4%, a viability, T/C (second compound 1 µM, first compound 3.16 µM) of 51.1% and a viability, T/C (second compound 1 µM, first compound 10 µM) of 13.9%.
